Patent US11000033B2, “Ketone or oxime compound, and herbicide” (NISSAN CHEMICAL CORPORATION, priority 2014, dated 2021)

Assays:
Format in all cases: in vivo
[1] = system: Monochoria vaginalis; assay: Test Example 2: herbicidal activity, application during weed generation in submerged conditions (symbol C); details: Table 23; application herbicide amount 320 g/ha; grade 0-5 by criteria of Test Example 1
In short: (§1)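 Seeds sown in flooded alluvial soil (4 cm water) were grown in a 25-30° C greenhouse. At the one- to two-leaf stage, diluted emulsion of compound was applied to the water surface at a predetermined rate. Effect was scored 3 weeks later.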

[2] = system: Lolium multiflorum Lam.; assay: Test Example 5: herbicidal effect by foliage application, plastic box (symbol K); details: 320 g/ha, 3 weeks after application
In short: (§2)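 Visual herbicidal score, taken three weeks post-application, of seedlings sprayed on the foliage with water-diluted emulsion at a predetermined amount; plants were 14 days old, greenhouse-raised at 25° C. to 30° C.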

[3] = system: rapeseed; assay: Test Example 5: effect on crop by foliage application, plastic box (symbol g); details: 320 g/ha, 3 weeks after application
In short: (§3)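 Crop and weed seeds sown in spots in sterilized diluvial soil in plastic boxes and covered with about 1.5 cm soil. Plants raised in a greenhouse at 25° C. to 30° C. for foliar application.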

[4] = system: corn; assay: Test Example 5: effect on crop by foliage application, plastic box (symbol c); details: 320 g/ha, 3 weeks after application
In short: as §3

[5] = system: transplanted rice plant; assay: Test Example 1: effect on crop, application before weed generation in submerged conditions (symbol a); details: application herbicide amount 320 g/ha
In short: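 Alluvial soil pots flooded to 4 cm water, sown with Echinochloa oryzacola, Scirpus juncoides and Monochoria vaginalis, then transplanted with 2.5 leaf stage rice seedlings; pre-emergence application. Greenhouse 25° C. to 30° C.; scored 0–5 by herbicidal ratio 3 weeks after application.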

[6] = system: rice; assay: Test Example 4: effect on crop by soil treatment (symbol b); details: 320 g/ha
In short: (§4)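 Crop seeds, among them rice, wheat, beet and rapeseed, were sown in sterilized diluvial soil and covered with about 1.5 cm of soil. Boxes were kept in a greenhouse at 25° C. to 30° C. for plant growth.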

[7] = system: Veronica persica; assay: Test Example 5: herbicidal effect by foliage application, plastic box (symbol R); details: 320 g/ha, 3 weeks after application
In short: as §2

[8] = system: wheat; assay: Test Example 4: effect on crop by soil treatment (symbol e); details: 320 g/ha
In short: as §4

[9] = system: Amaranthus retroflexus; assay: Test Example 5: herbicidal effect by foliage application, plastic box (symbol N); details: 320 g/ha, 3 weeks after application
In short: as §2

[10] = system: soybean; assay: Test Example 5: effect on crop by foliage application, plastic box (symbol d); details: 320 g/ha, 3 weeks after application
In short: as §3

[11] = system: Avena fatua; assay: Test Example 4: herbicidal effect by soil treatment (symbol I); details: 320 g/ha
In short: (§5)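 Seeds were sown in sterilized diluvial soil, covered with about 1.5 cm of soil, and the soil surface was sprayed with a water-diluted emulsion of the compound at a predetermined rate. Plants grew in a greenhouse at 25° C. to 30° C.; effects were scored visually 3 weeks after application.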

[12] = system: Echinochloa crus-galli var. crus-galli; assay: Test Example 5: herbicidal effect by foliage application, plastic box (symbol H); details: 320 g/ha, 3 weeks after application
In short: as §2

[13] = system: Abutilon theophrasti; assay: Test Example 4: herbicidal effect by soil treatment (symbol M); details: 320 g/ha
In short: as §5

[14] = system: Echinochloa crus-galli var. crus-galli; assay: Test Example 4: herbicidal effect by soil treatment (symbol H); details: 320 g/ha
In short: as §5

[15] = system: Digitaria ciliaris; assay: Test Example 5: herbicidal effect by foliage application, plastic box (symbol F); details: 320 g/ha, 3 weeks after application
In short: as §2

[16] = system: Lolium multiflorum Lam.; assay: Test Example 4: herbicidal effect by soil treatment (symbol K); details: 320 g/ha
In short: as §5

[17] = system: Scirpus juncoides; assay: Test Example 2: herbicidal activity, application during weed generation in submerged conditions (symbol B); details: Table 23; application herbicide amount 320 g/ha; grade 0-5 by criteria of Test Example 1
In short: as §1

[18] = system: soybean; assay: Test Example 4: effect on crop by soil treatment (symbol d); details: 320 g/ha
In short: as §4

[19] = system: beet; assay: Test Example 4: effect on crop by soil treatment (symbol f); details: 320 g/ha
In short: as §4

| Compound | Herbicidal effect grade, C: Monochoria vaginalis [1] | K: Lolium multiflorum Lam., herbicidal effect (criteria 0-5) [2] | g: rapeseed, effect on crop (criteria 0-5) [3] | c: corn, effect on crop (criteria 0-5) [4] | Effect grade on crop, a: transplanted rice plant [5] | b: directly sowed rice plant, effect grade on crop [6] | R: Veronica persica, herbicidal effect (criteria 0-5) [7] | e: wheat, effect grade on crop [8] | N: Amaranthus retroflexus, herbicidal effect (criteria 0-5) [9] | d: soybean, effect on crop (criteria 0-5) [10] | I: Avena fatua, herbicidal effect grade [11] | H: Echinochloa crus-galli var. crus-galli, herbicidal effect (criteria 0-5) [12] | M: Abutilon theophrasti, herbicidal effect grade [13] | H: Echinochloa crus-galli var. crus-galli, herbicidal effect grade [14] | F: Digitaria ciliaris, herbicidal effect (criteria 0-5) [15] | K: Lolium multiflorum Lam., herbicidal effect grade [16] | Herbicidal effect grade, B: Scirpus juncoides [17] | d: soybean, effect grade on crop [18] | f: beet, effect grade on crop [19] |
| --- | --- | --- | --- | --- | --- | --- | --- | --- | --- | --- | --- | --- | --- | --- | --- | --- | --- | --- | --- |
| CCCC=CC(=O)OC1=C(c2c(C)cc(C)cc2C)C(=O)C(CC(C)=NOC)C1 (stereo not shown) [1-090] | 3 (Herbicidal ratio of 40% or higher and lower than 70%) | 5 (Herbicidal ratio of 90% or more (almost completely withered)) | 4 (Herbicidal ratio of 70% or higher and lower than 90%) | 5 (Herbicidal ratio of 90% or more (almost completely withered)) | 5 (Herbicidal ratio of 90% or more (almost completely withered)) | 5 (Herbicidal ratio of 90% or more (almost completely withered)) | 3 (Herbicidal ratio of 40% or higher and lower than 70%) | 4 (Herbicidal ratio of 70% or higher and lower than 90%) | 1 (Herbicidal ratio of 5% or higher and lower than 20%) | 3 (Herbicidal ratio of 40% or higher and lower than 70%) | 3 (Herbicidal ratio of 40% or higher and lower than 70%) | 5 (Herbicidal ratio of 90% or more (almost completely withered)) | 4 (Herbicidal ratio of 70% or higher and lower than 90%) | 5 (Herbicidal ratio of 90% or more (almost completely withered)) | 5 (Herbicidal ratio of 90% or more (almost completely withered)) | 5 (Herbicidal ratio of 90% or more (almost completely withered)) | 5 (Herbicidal ratio of 90% or more (almost completely withered)) | 0 (Herbicidal ratio of 5% or lower (almost no effect)) | 0 (Herbicidal ratio of 5% or lower (almost no effect)) |
| CON=C(C)CC1CC(OC(=O)C=Cc2ccco2)=C(c2c(C)cc(C)cc2C)C1=O (stereo not shown) [1-091] | 0 (Herbicidal ratio of 5% or lower (almost no effect)) | 5 (Herbicidal ratio of 90% or more (almost completely withered)) | 4 (Herbicidal ratio of 70% or higher and lower than 90%) | 5 (Herbicidal ratio of 90% or more (almost completely withered)) | 4 (Herbicidal ratio of 70% or higher and lower than 90%) | 5 (Herbicidal ratio of 90% or more (almost completely withered)) | 1 (Herbicidal ratio of 5% or higher and lower than 20%) | 4 (Herbicidal ratio of 70% or higher and lower than 90%) | 3 (Herbicidal ratio of 40% or higher and lower than 70%) | 1 (Herbicidal ratio of 5% or higher and lower than 20%) | 3 (Herbicidal ratio of 40% or higher and lower than 70%) | 5 (Herbicidal ratio of 90% or more (almost completely withered)) | 1 (Herbicidal ratio of 5% or higher and lower than 20%) | 5 (Herbicidal ratio of 90% or more (almost completely withered)) | 5 (Herbicidal ratio of 90% or more (almost completely withered)) | 5 (Herbicidal ratio of 90% or more (almost completely withered)) | 3 (Herbicidal ratio of 40% or higher and lower than 70%) | 0 (Herbicidal ratio of 5% or lower (almost no effect)) | 0 (Herbicidal ratio of 5% or lower (almost no effect)) |
| CON=C(C)CC1CC(OC(=O)COCC(F)(F)F)=C(c2c(C)cc(C)cc2C)C1=O (stereo not shown) [1-092] | 0 (Herbicidal ratio of 5% or lower (almost no effect)) | 5 (Herbicidal ratio of 90% or more (almost completely withered)) | 4 (Herbicidal ratio of 70% or higher and lower than 90%) | 5 (Herbicidal ratio of 90% or more (almost completely withered)) | 5 (Herbicidal ratio of 90% or more (almost completely withered)) | 5 (Herbicidal ratio of 90% or more (almost completely withered)) | 0 (Herbicidal ratio of 5% or lower (almost no effect)) | 4 (Herbicidal ratio of 70% or higher and lower than 90%) | 3 (Herbicidal ratio of 40% or higher and lower than 70%) | 0 (Herbicidal ratio of 5% or lower (almost no effect)) | 2 (Herbicidal ratio of 20% or higher and lower than 40%) | 5 (Herbicidal ratio of 90% or more (almost completely withered)) | 3 (Herbicidal ratio of 40% or higher and lower than 70%) | 5 (Herbicidal ratio of 90% or more (almost completely withered)) | 5 (Herbicidal ratio of 90% or more (almost completely withered)) | 5 (Herbicidal ratio of 90% or more (almost completely withered)) | 4 (Herbicidal ratio of 70% or higher and lower than 90%) | 0 (Herbicidal ratio of 5% or lower (almost no effect)) | 0 (Herbicidal ratio of 5% or lower (almost no effect)) |
| COCC(=O)OC1=C(c2c(C)cc(C)cc2C)C(=O)C(CC(C)=NOC)C1 (stereo not shown) [1-093] | 3 (Herbicidal ratio of 40% or higher and lower than 70%) | 5 (Herbicidal ratio of 90% or more (almost completely withered)) | 4 (Herbicidal ratio of 70% or higher and lower than 90%) | 5 (Herbicidal ratio of 90% or more (almost completely withered)) | 5 (Herbicidal ratio of 90% or more (almost completely withered)) | 5 (Herbicidal ratio of 90% or more (almost completely withered)) | 3 (Herbicidal ratio of 40% or higher and lower than 70%) | 4 (Herbicidal ratio of 70% or higher and lower than 90%) | 4 (Herbicidal ratio of 70% or higher and lower than 90%) | 3 (Herbicidal ratio of 40% or higher and lower than 70%) | 3 (Herbicidal ratio of 40% or higher and lower than 70%) | 5 (Herbicidal ratio of 90% or more (almost completely withered)) | 4 (Herbicidal ratio of 70% or higher and lower than 90%) | 5 (Herbicidal ratio of 90% or more (almost completely withered)) | 5 (Herbicidal ratio of 90% or more (almost completely withered)) | 5 (Herbicidal ratio of 90% or more (almost completely withered)) | 5 (Herbicidal ratio of 90% or more (almost completely withered)) | 0 (Herbicidal ratio of 5% or lower (almost no effect)) | 0 (Herbicidal ratio of 5% or lower (almost no effect)) |
